Source: patent publication US5910499A, “Antiallergic agent having an anti-oxidant action” (LTT Institute Co., Ltd., priority 1997, dated 1999)

Key:
rat liver microsome = experiment: ADP/Fe^3+ induced lipid peroxidation reaction using rat liver microsome (anti-oxidant action); assay type: biochemical; conditions: for inhibition action on lipid peroxidation compared with BHT: versus BHT, positive control (FIG. 1)
Description: Test Example 1 [Anti-oxidant-action (lipid peroxide production inhibiting action)]
Compounds II-VII represented by the following formulae [drawing 3] have shown concentration dependent inhibition action on ADP/Fe^3+ induced lipid peroxidation reaction using rat liver microsome.
Test method (ADP/Fe^3+ induced lipid peroxidation reaction)
The method of Kiso et al. was employed. That means, 100 μl of a rat liver microsome suspension (20 mg of protein/ml), 100 μl of a 2 mM NADPH, 100 μl of a 10 mM ADP, and 100 μl of a specimen solution whose concentration was controlled with a 10% N,N-dimethylformamide (DMF) aqueous solution were added to 500 μl of a trihydroxymethylaminomethane (Tris)-HCl buffer solution (167 mM KCl, 74.4 mM Tris, pH 7.4) and heated at 37° C. for 5 minutes. Then 100 μl of 100 μM FeCl3 was added thereto and heated at 37° C. for 20 minutes
To a control was added 100 μl of a 10% DMF aqueous solution instead of the specimen solution. To a blank, 100 μl of a 10% DMF aqueous solution was added instead of the specimen solution, and 300 μl of water was added instead of 100 μl of the NADPH, 100 μl of the FeCl3, and 100 μl of the ADP. The reaction was stopped by cooling with ice, and the amount of the lipid peroxide was calculated as an amount of malondialdehyde according to the method of Ohkawa et al.
That means, 200 μl of a 8.1% sodium dodecyl sulfate (SDS) aqueous solution, 1.5 ml of an acetic acid buffer solution (20% AcOH containing 0.27M HCl was controlled with 10M NaOH to have a pH of 3.5), and 1.5 ml of a 0.8% 2-thiobarbituric acid aqueous solution were added to 1 ml of the reaction mixture and heated in a boiling water bath for 20 minutes Following heating, the reaction was stopped with cooling with ice and 4 ml of n-BuOH-pyridine mixed solution (15:1) was added thereto and mixed vigorously. Then the mixture was subjected to centrifugation at 800×g for 10 minutes and the absorbancy of the supernatant liquid was measured at 532 nm.

[1] = test system: rat cutaneous anaphylactic reaction (PCA reaction); experiment: Antiallergic action in an orally administered rat, 48 hours homologous PCA reaction; assay type: in vivo; conditions: Wistar male rat, oral, 2 hours before antigen; versus tranilast (FIG. 2)
Description: Test Example 4--Antiallergic action in an orally administered rat (PCA method)
The antiallergic actions of Compound II-Compound VII were evaluated using rat cutaneous anaphylactic reaction (PCA reaction) employing tranilast, which is an oral antiallergic agent, as a positive control compound.
Test method (Antiallergic action by PCA reaction)
The test was carried out according to the method of Koda et al, {Int. Arch. Allergy Appl. Immunol. 87, 254(1988)}. The dorsum of a Wistar-strain male rat having a body weight of about 200 g was shaved and 0.1 ml of an antiserum showing 48 hours homologous PCA strength of 1:128-1:256 diluted with physiological saline was injected into the dorsum intracutaneously. […] After 30 minutes, the rat was brought to death by exsanguination and the pigment freckle generated on the back skin was cut out and the amount of the transuded pigment was determined. That means, the cut out skin was put in a test tube, 1 ml of 1N KOH was added and allowed to stand overnight at 37° C. to elute the pigment, and 9 ml of a mixture comprising acetone and 0.6N phosphoric acid (mixed at 13:5) was added thereto and shaken, and the insoluble substances were removed by filtration and the absorbency of the filtrate was measured at 620 nm and the amount of the pigment was determined. […]

5-lipoxygenase = molecular target: T1, 5-lipoxygenase (Rattus norvegicus, UniProt P12527); experiment: 5-lipoxygenase inhibiting action (leucotriene production inhibiting action), RBL-1 cell homogenate; assay type: biochemical; conditions: arachidonic acid, 37° C., 5-HETE by HPLC
T1 construct: subjected to supersonic treatment and the cells were disrupted; endogenous in cells; host or cells: RBL-1 cells (homogenate)
T1 sequence (P12527 1-673): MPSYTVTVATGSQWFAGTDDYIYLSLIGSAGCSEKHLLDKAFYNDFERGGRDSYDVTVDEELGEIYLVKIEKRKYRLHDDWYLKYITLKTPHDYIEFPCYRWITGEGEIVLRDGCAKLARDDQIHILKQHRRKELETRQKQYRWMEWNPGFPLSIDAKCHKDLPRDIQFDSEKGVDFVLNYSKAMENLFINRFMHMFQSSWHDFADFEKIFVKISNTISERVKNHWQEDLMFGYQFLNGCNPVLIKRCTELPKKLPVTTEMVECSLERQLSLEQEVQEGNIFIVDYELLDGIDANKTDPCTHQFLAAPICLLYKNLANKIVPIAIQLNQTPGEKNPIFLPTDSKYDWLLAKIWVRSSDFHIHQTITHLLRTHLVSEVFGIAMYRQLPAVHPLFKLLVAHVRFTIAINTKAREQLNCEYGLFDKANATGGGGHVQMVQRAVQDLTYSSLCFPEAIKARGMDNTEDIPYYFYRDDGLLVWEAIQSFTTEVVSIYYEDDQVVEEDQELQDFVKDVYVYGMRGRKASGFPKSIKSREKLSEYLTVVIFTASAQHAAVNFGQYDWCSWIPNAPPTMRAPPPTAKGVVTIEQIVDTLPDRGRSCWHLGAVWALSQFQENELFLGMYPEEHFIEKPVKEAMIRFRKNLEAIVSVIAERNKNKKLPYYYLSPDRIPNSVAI
Description: Test method (5-lipoxygenase inhibition action)
That means, a RBL-1 cell suspension which was adjusted with a 50 mM phosphate buffer such that the number of cells became 1×10^7 cells/ml, was subjected to supersonic treatment and the cells were disrupted To 500 μl of the cell homogenate solution was added 10 μl of a specimen solution whose concentration was adjusted to different concentrations using a 1% DMSO, 10 μl of 100 mM CaCl2 and 10 μl of a 10 mg/ml arachidonic acid solution in MeOH and heated to 37° C. for 3 minutes. To a control was added 10 μl of a 1% DMSO instead of the specimen. To a blank, 10 μl of a 1% DMSO was added instead of the specimen, and 500 μl of a 50 mM phosphate buffer was added instead of RBL-1 cell suspension. Then 500 μl of MeOH was added thereto and the mixture was cooled with ice to stop the reaction, followed by mixing and centrifugation at 2000×g for 15 minutes Then the amount of 5-HETE in 10 μl of the supernatant liquid was measured using HPLC under the following conditions.
mobile phase; acetonitrile: 0.1% acetic acid=85:15
detection wave length; 235 nm
The inhibition ratio to 5-lipoxygenase activity was calculated according to the following formula.

guinea pig bowel = molecular target: T2, guinea pig bowel (Cavia porcellus, UniProt P31389); experiment: Antihistaminic action with guinea pig bowel by Magnus' method; conditions: guinea pig ileum, histamine dose reaction curve, 37° C.; read-out: pA2 (index of the antihistaminic action) (converted)
T2 construct: the ileum was excised to a length of about 2 cm; from tissue; host or cells: guinea pig ileum
Description: Test Example 3--Antihistaminic action
The antihistaminic action of the Compound V was tested with a guinea pig bowel by Magnus' method using diphenhydramine hydrochloride as a positive control.
A guinea pig which had been fasted overnight was struck to death and the ileum was excised to a length of about 2 cm and one end was suspended in an isotonic transducer and the other end was secured onto a fixed rod. The temperature of the temperature controlled bath was kept at 37° C. and the ileum was allowed to stand for about 30 minutes while a mixed gas comprising 95% of O2 and 5% of CO2 was introduced into 10 ml of Tyrode solution, and histamine of different concentrations was injected for training, then a dose reaction curve was obtained by administering histamine accumulatively in order of increasing concentration. Then after washing, a dose reaction curve in relation to the histamine was similarly obtained under administration of the specimen and pA2 was calculated.

T2 sequence (P31389 whole entry): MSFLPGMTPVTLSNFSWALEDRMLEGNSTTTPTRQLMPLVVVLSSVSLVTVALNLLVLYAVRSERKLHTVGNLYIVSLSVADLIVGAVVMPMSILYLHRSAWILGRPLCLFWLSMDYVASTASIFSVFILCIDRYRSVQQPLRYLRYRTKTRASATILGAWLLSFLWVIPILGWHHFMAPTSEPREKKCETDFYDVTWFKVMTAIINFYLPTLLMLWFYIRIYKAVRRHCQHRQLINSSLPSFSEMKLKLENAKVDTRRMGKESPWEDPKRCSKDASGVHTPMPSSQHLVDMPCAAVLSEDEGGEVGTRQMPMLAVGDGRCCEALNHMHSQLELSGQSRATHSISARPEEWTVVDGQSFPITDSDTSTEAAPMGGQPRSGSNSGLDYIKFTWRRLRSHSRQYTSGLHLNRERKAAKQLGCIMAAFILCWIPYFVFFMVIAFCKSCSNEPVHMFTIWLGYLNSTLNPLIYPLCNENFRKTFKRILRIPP

Row | SMILES | inhibition action on lipid peroxidation compared with BHT (rat liver microsome) | antiallergic activity compared with the positive control compound (tranilast) [1] | IC50 (5-lipoxygenase) [µM] | anti-oxidant action, ranking among the compounds of Test Example 1 (rat liver microsome; result in words) | Kb (guinea pig bowel) [µM]
1 | Cc1cc(OCCCN2CCN(C(c3ccccc3)c3ccccc3)CC2)c(C)c(C)c1O [Compound III] | higher inhibition actions than BHT | – | – | – | –
2 | Cc1cc(OCCN2CCN(C(c3ccccc3)c3ccccc3)CC2)c(C)c(C)c1O [Compound II] | higher inhibition actions than BHT | – | – | – | –
3 | Cc1cc(OCCCCN2CCN(C(c3ccccc3)c3ccccc3)CC2)c(C)c(C)c1O [Compound IV] | higher inhibition actions than BHT | higher activity than that of the positive control compound | – | – | –
4 | Cc1cc(OCCCCCCN2CCN(C(c3ccccc3)c3ccccc3)CC2)c(C)c(C)c1O [Compound V] | higher inhibition actions than BHT | higher activity than that of the positive control compound | 6.2 | highest anti-oxidant action | 0.126
